Experimental data: PMC9356065, “Novel psoralen derivatives as anti-breast cancer agents and their light-activated cytotoxicity against HER2 positive breast cancer cells” (Scientific Reports, 2022)
Counter-ions that a name gives are not always drawn. Like-named read-outs stand apart in the source and are kept apart here.

Columns and labels:
MDA-MB-231 [1] = assay: MTT cytotoxicity, 48 h, without UVA; type: cell-based; conditions: Homo sapiens, MDA-MB-231, light or radiation study; for inhibition at 50 µg/mL: I = %inhibition lower than 50%, read-out: Cytotoxic activity MDA-MB-231 %Inhibition; for IC50: hormone-independent breast cancer, read-out: Cytotoxic activity MDA-MB-231 IC50
Procedure: (§1) MDA-MB-231 (triple-negative breast cancer) was obtained from M.D. Anderson Cancer Center, Houston, TX, USA). T47-D (hormone-dependent breast carcinoma), SK-BR-3 (human HER2+ breast cancer), and MRC-5 (normal embryonic lung fibroblast) were obtained from the American Type Culture Collection (ATCC, Manassas, VA, USA).
(§2) The cytotoxic effect of tested compounds was evaluated in two breast cancer cell lines, MDA-MB-231 and T47-D. Number of survival cells after exposure to tested compounds for 48 h was determined by MTT assay, as previously described.

SK-BR-3 [2] = assay: Dark and light-activated (UVA) cytotoxicity, MTT; type: cell-based, human; conditions: Homo sapiens, SK-BR-3, light or radiation study; irradiation with UVA (2.0 J cm^−2); HER2+ breast cancer
Procedure: (§3) The selected compounds were screened for their IC50 values against both HER2+ breast cancer (SK-BR-3), and HER2− breast cancer (MDA-MB-231) in both dark and light-activated conditions (Table 2). Additionally, a negative control study was also performed with SK-BR-3 and MDA-MB-231 cells in the absence of tested compound under UVA irradiation (See Fig S7., Supporting Information).
(§4) SK-BR-3 and MDA-MB-231 cells were seeded into 96-well cell culture plates at 5 × 10^3 cells/well and incubated for 24 h at 37 °C under 5% CO2. After that, the cells were treated with 50 μM of psoralen derivatives in DMEM with 10% FBS and the cells were continued incubation for another 4 h. After incubation, the cells were washed with PBS (3 times) and then irradiated by a 365 nm lamp with the light intensity of 2.0 J cm^−2 for 12.5 min before re-incubation for another 72 h. After incubation, the cell was treated with methylthiazolyldiphenyl-tetrazolium bromide (MTT reagent 200 μL, 0.5 mg mL^−1, Sigma-Aldrich) for 2 h. After reagent removal, DMSO was added to dissolve the formazan product and the cell viabilities were determined through UV–Vis absorption of the resulting formazan at wavelength 560 nm using a microplate reader (BMG Labtech/SPECTROstar Nano). The cell morphology images were captured by using a light microscope (Microscope Nikon, inverted digital) at 20X magnification prior to treating with MTT reagent.

[3] = test system: differentiated HL-60 cells; assay: Inhibition of TPA-induced superoxide anion radical generation (HL-60 Antioxidant); type: cell-based, human; conditions: screening concentration 100 µM; for inhibition at 100 µM: Homo sapiens, HL-60, read-out: HL-60 Antiox. %Inh
Description: Inhibition of 12-O-tetradecanoylphorbol-13-acetate (TPA)-induced superoxide anion radical generation in differentiated HL-60 cells (HL-60 Antioxidant) TPA-induced superoxide anion radical formation was detected in differentiated HL-60 cells by photometric determination of cytochrome c reduction as previously described by Gerhäuser et al., 2003.ii Superoxide dismutase (SOD;15U) was a positive control. […]

aromatase (CYP19) = target: T1, aromatase (CYP19) (Homo sapiens, UniProt P11511); assay: Inhibition of aromatase (AIA); type: biochemical; conditions: at 12.5 µM; I = %inhibition lower than 50%; read-out: Aromatase inhibitory activity %Inhibition
T1 sequence (P11511 1-503): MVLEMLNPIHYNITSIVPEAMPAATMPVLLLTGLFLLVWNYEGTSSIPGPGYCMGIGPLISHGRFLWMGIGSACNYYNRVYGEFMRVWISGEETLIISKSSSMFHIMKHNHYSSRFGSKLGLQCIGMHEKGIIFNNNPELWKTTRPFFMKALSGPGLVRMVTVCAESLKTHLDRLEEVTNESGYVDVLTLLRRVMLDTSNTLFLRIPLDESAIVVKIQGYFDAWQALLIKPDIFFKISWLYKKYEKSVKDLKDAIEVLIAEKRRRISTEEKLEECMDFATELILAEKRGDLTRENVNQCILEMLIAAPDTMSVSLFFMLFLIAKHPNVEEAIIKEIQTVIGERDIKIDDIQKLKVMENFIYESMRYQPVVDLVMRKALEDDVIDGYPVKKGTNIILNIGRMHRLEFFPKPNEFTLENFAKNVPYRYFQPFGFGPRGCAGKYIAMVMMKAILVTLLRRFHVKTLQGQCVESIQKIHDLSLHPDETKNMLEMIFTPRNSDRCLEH
Procedure: Estrogens are the critical risk factor for breast cancer initiation and progression and the aromatase enzyme involves in the final step conversion of androgens to estrogens[21],[22]. […] In this study, the synthesized psoralen derivatives were also tested for aromatase inhibitory activity (AIA) which is considered to be one of chemopreventive mechanisms for hormone dependent breast cancer.
Inhibition of the aromatase was performed using the method designed by Stresser et al.[39].

SK-BR-3 cells = assay: Cell morphology by light microscope; type: cell-based, human; conditions: 48 h; for morphology of SK-BR-3 cells under light activation: UVA 2.0 J cm^−2
Procedure: as §4, with “After incubation, the cells were washed with PBS (3 times) and then irradiated by a 365 nm lamp with the light intensity of 2.0 J cm^−2 for 12.5 min before re-incubation for another 72 h.” left out

SK-BR-3 [4] = assay: Dark and light-activated (UVA) cytotoxicity, MTT; type: cell-based; conditions: Homo sapiens, dark, HER2+ breast cancer
T47-D = assay: MTT cytotoxicity, 48 h, without UVA; type: cell-based, human; conditions: for inhibition at 50 µg/mL / IC50: Homo sapiens, T47D, light or radiation study, 48 h, without UVA; for inhibition at 50 µg/mL: I = %inhibition lower than 50%, read-out: Cytotoxic activity T47-D %Inhibition; for IC50: hormone-dependent breast cancer, read-out: Cytotoxic activity T47-D IC50; for Selectivity Index (SI): SI = IC50 for MRC-5/IC50 for T47-D
Procedure: (§5) Additionally, the cytotoxicity towards normal cells, human embryonal lung fibroblast cell MRC-5 was also assessed.
as §1, §2

[5] = Scavenging of diphenyl-picryl-hydrazyl radicals (DPPH); conditions: for DPPH %Inh: screening concentration 250 µM; for IC50: read-out: DPPH IC50
Description: 1. Chemoprevention activity

MDA-MB-231 [6] = assay: Dark and light-activated (UVA) cytotoxicity, MTT; type: cell-based; conditions: Homo sapiens, MDA-MB-231, light or radiation study; irradiation with UVA (2.0 J cm^−2); HER2− breast cancer
Procedure: as §3, §4

MDA-MB-231 [7] = assay: Dark and light-activated (UVA) cytotoxicity, MTT; type: cell-based; conditions: Homo sapiens, dark, HER2− breast cancer
xanthine oxidase = xanthine oxidase (Homo sapiens, UniProt P47989); assay: Inhibition of xanthine oxidase (IXO); type: biochemical; conditions: for inhibition at 500 µM: screening concentration 500 µM, read-out: IXO %Inh
Procedure: 1. […]
Inhibition of xanthine oxidase (IXO)
Xanthine oxidase activity was determined by quantifying the amount of uric acid produced
from xanthine. […]

[8] = Inhibition of superoxide radical formation by xanthine/xanthine oxidase (XXO); type: biochemical; conditions: for IC50: read-out: XXO IC50; for XXO %Inh: screening concentration 500 µM
Description: 1. […]

MCF-7 = conditions: Fig. 1d; cited from earlier work
MDA-MB-231 [9] = test system: MDA-MB-231; set-up: method as in doi:10.1007/s00044-014-1312-6; conditions: previously reported; cited from earlier work
[10] = MTT cytotoxicity towards normal cells, 48 h; type: cell-based; conditions: MRC-5 cells (normal embryonic lung fibroblasts), human embryonal lung fibroblast cell, without UVA, read-out: Cytotoxic activity MRC-5 IC50
Procedure: as §5, §1, §2

[11] = test system: ERα activity in MCF-7 cells; set-up: method as in PMID 31673107; conditions: read-out: IC50 antagonism of ERα activity in MCF-7 cells; cited from earlier work

xanthine oxidase, sequence (P47989 whole entry, species assumed): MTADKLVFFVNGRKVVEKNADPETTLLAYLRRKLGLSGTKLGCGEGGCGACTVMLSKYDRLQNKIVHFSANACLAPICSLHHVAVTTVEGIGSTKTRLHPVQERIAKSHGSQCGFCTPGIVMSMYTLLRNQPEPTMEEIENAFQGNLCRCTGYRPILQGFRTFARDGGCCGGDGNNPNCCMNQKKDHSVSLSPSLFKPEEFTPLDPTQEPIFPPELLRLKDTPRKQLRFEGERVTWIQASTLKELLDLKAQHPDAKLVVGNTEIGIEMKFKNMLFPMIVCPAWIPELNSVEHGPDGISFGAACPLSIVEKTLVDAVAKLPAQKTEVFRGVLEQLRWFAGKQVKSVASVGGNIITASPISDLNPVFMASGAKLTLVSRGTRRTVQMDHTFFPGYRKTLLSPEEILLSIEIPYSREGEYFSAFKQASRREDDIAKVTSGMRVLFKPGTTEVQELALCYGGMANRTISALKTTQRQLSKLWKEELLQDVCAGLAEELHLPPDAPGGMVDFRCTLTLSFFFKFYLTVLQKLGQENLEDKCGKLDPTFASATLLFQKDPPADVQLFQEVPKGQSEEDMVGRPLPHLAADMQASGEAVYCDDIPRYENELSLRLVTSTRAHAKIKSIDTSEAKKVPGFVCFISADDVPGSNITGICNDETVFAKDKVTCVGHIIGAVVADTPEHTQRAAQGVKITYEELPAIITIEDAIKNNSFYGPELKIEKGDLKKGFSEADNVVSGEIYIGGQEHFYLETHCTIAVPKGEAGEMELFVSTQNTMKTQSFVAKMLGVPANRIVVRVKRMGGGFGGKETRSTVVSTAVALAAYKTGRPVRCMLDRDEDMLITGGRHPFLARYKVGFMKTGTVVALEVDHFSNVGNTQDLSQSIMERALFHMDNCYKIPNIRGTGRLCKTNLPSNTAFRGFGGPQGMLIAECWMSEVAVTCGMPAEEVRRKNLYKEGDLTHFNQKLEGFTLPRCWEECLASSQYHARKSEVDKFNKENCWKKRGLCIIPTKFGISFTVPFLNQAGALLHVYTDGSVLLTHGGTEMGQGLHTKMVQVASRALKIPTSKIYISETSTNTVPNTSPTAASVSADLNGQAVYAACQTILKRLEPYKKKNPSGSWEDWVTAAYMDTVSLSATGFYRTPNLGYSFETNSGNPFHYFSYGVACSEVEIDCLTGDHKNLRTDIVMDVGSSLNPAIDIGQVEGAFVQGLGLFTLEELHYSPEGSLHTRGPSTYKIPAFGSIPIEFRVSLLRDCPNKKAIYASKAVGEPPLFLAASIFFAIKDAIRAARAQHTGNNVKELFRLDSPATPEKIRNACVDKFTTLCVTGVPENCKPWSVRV

## COc1c2occc2c(NC(=O)c2ccco2)c2ccc(=O)oc12 [3g, N-(9-Methoxy-7-oxo-7H-furo[3,2-g]chromen-4-yl)furan-2-carboxamide]
other
  melting point: 227 to 228 °C
MDA-MB-231 [1]
  inhibition at 50 µg/mL: 0.5%
SK-BR-3 [2]
  IC50: 2.71 ± 0.84 µM
[3]
  inhibition at 100 µM: 17%
Aromatase (CYP19)
  inhibition at 12.5 µM: 16%
SK-BR-3 cells
  morphology of SK-BR-3 cells under light activation: significantly changed
  morphology of SK-BR-3 cells under dark condition: maintained morphology of intact cells
SK-BR-3 [4]
  IC50: > 100 µM
T47-D
  inhibition at 50 µg/mL: 24%
[5]
  DPPH %Inh: 3%
MDA-MB-231 [6]
  IC50: > 100 µM
MDA-MB-231 [7]
  IC50: > 100 µM

## CCC(=O)Nc1c2ccoc2c(OC)c2oc(=O)ccc12 [3j, N-(9-Methoxy-7-oxo-7H-furo[3,2-g]chromen-4-yl)propionamide]
other
  melting point: 233 to 234 °C
MDA-MB-231 [1]
  inhibition at 50 µg/mL: 3%
Xanthine oxidase
  inhibition at 500 µM: 29%
[8]
  IC50: 187 µM
SK-BR-3 [2]
  IC50: 3.05 ± 1.02 µM
[3]
  inhibition at 100 µM: 11%
Aromatase (CYP19)
  inhibition at 12.5 µM: 8%
SK-BR-3 cells
  morphology of SK-BR-3 cells under light activation: significantly changed
  morphology of SK-BR-3 cells under dark condition: maintained morphology of intact cells
SK-BR-3 [4]
  IC50: > 100 µM
T47-D
  inhibition at 50 µg/mL: 22%
[5]
  DPPH %Inh: 2%
MDA-MB-231 [6]
  IC50: > 100 µM
MDA-MB-231 [7]
  IC50: > 100 µM

## COc1c2occc2c(NC(=O)C(C)C)c2ccc(=O)oc12 [3k, N-(9-Methoxy-7-oxo-7H-furo[3,2-g]chromen-4-yl)isobutyramide]
other
  melting point: 234 to 235 °C
MDA-MB-231 [1]
  inhibition at 50 µg/mL: 4%
Xanthine oxidase
  inhibition at 500 µM: 17%
[8]
  IC50: 394 µM
SK-BR-3 [2]
  IC50: 66.1 ± 5.21 µM
[3]
  inhibition at 100 µM: 11%
Aromatase (CYP19)
  inhibition at 12.5 µM: 8%
SK-BR-3 [4]
  IC50: > 100 µM
T47-D
  inhibition at 50 µg/mL: 36%
[5]
  DPPH %Inh: 2%
MDA-MB-231 [6]
  IC50: > 100 µM
MDA-MB-231 [7]
  IC50: > 100 µM

## COc1c2occc2c(NC(=O)C23CC4CC(CC(C4)C2)C3)c2ccc(=O)oc12 [3n, (3r,5r,7r)-N-(9-Methoxy-7-oxo-7H-furo[3,2-g]chromen-4-yl)adamantane-1-carboxamide]
other
  melting point: 240 to 242 °C
MDA-MB-231 [1]
  IC50: > 100 µM
[8]
  XXO %Inh: 47%
MCF-7
  IC50: 0.48 µM
[3]
  inhibition at 100 µM: 8%
Aromatase (CYP19)
  inhibition at 12.5 µM: 5%
MDA-MB-231 [9]
  IC50: 2 µM
T47-D
  IC50: 43.06 ± 0.09 µM
  Selectivity Index (SI): > 3.0
[5]
  DPPH %Inh: 1%

## COc1c2occc2c(NCc2ccccc2)c2ccc(=O)oc12 [4a, 4-(Benzylamino)-9-methoxy-7H-furo[3,2-g]chromen-7-one]
other
  melting point: 168 to 169 °C
MDA-MB-231 [1]
  IC50: > 100 µM
Xanthine oxidase
  IC50: 27.4 µM
[8]
  XXO %Inh: 34%
[3]
  inhibition at 100 µM: 7%
Aromatase (CYP19)
  inhibition at 12.5 µM: 46%
T47-D
  IC50: 31.1 ± 1.54 µM
  Selectivity Index (SI): > 5.0
[5]
  IC50: 145 µM

## COc1cccc2c1C(=O)c1c(O)c3c(c(O)c1C2=O)C[C@@](O)(C(=O)CO)C[C@@H]3O[C@H]1C[C@H](N)[C@H](O)[C@H](C)O1 [Doxorubicin, reference compound]
MDA-MB-231 [1]
  IC50: 3.16 ± 0.26 µM
[10]
  IC50 at 48 h: 3.07 ± 0.22 µM
T47-D
  IC50: 1.46 ± 2.79 µM
  Selectivity Index (SI): 2.1

## CC/C(=C(\c1ccccc1)c1ccc(OCCN(C)C)cc1)c1ccccc1 [Tamoxifen citrate, reference compound]
MDA-MB-231 [1]
  IC50: 66 ± 2.48 µM
[10]
  IC50 at 48 h: 67.6 ± 10.5 µM
T47-D
  IC50: 20.9 ± 1.31 µM

## COc1c2occc2c(NC(=O)c2cccc3ccccc23)c2ccc(=O)oc12 [VIb]
MCF-7
  IC50 (MCF-7): Inactive
MDA-MB-231 [9]
  IC50: 100 µM

## C=CCNc1c2ccoc2c(OC)c2oc(=O)ccc12 [Va]
MCF-7
  IC50: 3.87 µM
MDA-MB-231 [9]
  IC50: 5 µM

## COc1c2occc2c(NCc2ccccc2)c2ccc(=O)oc12 [Vb]
MCF-7
  IC50: 1.09 µM
MDA-MB-231 [9]
  IC50: 3 µM

## O=c1ccc2ccc3occc3c2o1 [angelicin]
[11]
  IC50: 11 µM

## COc1c2occc2c(NS(=O)(=O)c2ccccc2)c2ccc(=O)oc12 [compound 5, N-(9-Methoxy-7-oxo-7H-furo[3,2-g]chromen-4-yl)benzenesulfonamide]
other
  melting point: 208 to 209 °C
MDA-MB-231 [1]
  inhibition at 50 µg/mL: 36%
Xanthine oxidase
  inhibition at 500 µM: 21%
[8]
  IC50: 90.7 µM
[3]
  inhibition at 100 µM: 32%
Aromatase (CYP19)
  inhibition at 12.5 µM: 33%
T47-D
  IC50: 87.9 ± 6.34 µM
  Selectivity Index (SI): > 1.5
[5]
  DPPH %Inh: 8%

## COc1c2c(c(NC(=S)Nc3ccccc3)c3ccoc13)C(OC)CC(=O)O2 (stereo not shown) [compound 6, 1-(5,9-Dimethoxy-7-oxo-6,7-dihydro-5H-furo[3,2-g]chromen-4-yl)-3-phenylthiourea]
other
  melting point: 191 to 192 °C
MDA-MB-231 [1]
  IC50: 91.9 ± 4.49 µM
Xanthine oxidase
  inhibition at 500 µM: 48%
[8]
  XXO %Inh: 24%
[3]
  HL-60 Antiox. %Inh: Toxic
Aromatase (CYP19)
  inhibition at 12.5 µM: 18%
T47-D
  IC50: > 100 µM
[5]
  IC50: 52.6 µM

## CC(C)=CCOc1c2ccoc2cc2oc(=O)ccc12 [isoimperatorin]
[11]
  IC50: 54.3 µM

## O=c1ccc2cc3ccoc3cc2o1 [psoralen]
[11]
  IC50: 24.1 µM

## O=c1ccc2cc3ccoc3c(O)c2o1 [xanthotoxol]
[11]
  IC50: 0.7 µM
